Read-outs that look alike come from different tables or passages of the source.
Assays:
[1] = target: T1, eqBuChE (BuChE, E.C.3.1.1.8, selected from horse serum) (Equus caballus, UniProt P81908); assay: Cholinesterase inhibitory activity (DTNB/BTC), eqBuChE; assay type: biochemical
T1 construct: BuChE (E.C.3.1.1.8, selected from horse serum); purchased Sigma; host or cells: horse serum
Description: Determination of Cholinesterase Inhibitory Activity:
Drugs and reagents: Test compounds, AChE (E.C.3.1.1.7, Type VI-S, selected from electric eel), BuChE (E.C.3.1.1.8, selected from horse serum), 5,5′-dithiobis(2-nitrobenzoic acid) (DTNB), acetylthiocholine (ATC) iodide and butyrylthiocholine (BTC) iodide were all purchased from Sigma; the positive control tacrine hydrochloride (9-amino-1,2,3,4-tetrahydroacridine hydrochloride hydrate) was purchased from BioTrend.
(§1) Instrument: THERMO Varioskan Flash full-wavelength multifunctional microplate reader.
(1) Formulation of buffer: 13.6 g of potassium dihydrogen phosphate was dissolved in 1 L of water, and pH was adjusted with potassium hydroxide to reach pH=8±0.1. The solution was stored at 4° C. for later use.
(2) Formulation of 0.01 M DTNB solution: 0.396 g of DTNB and 0.15 g of sodium bicarbonate were dissolved in 100 mL of water to prepare a 0.01 M DTNB solution, which was stored at −30° C. for later use.
(3) Formulation of 0.075 M ATC and BTC solutions: 0.217 g of ATC was dissolved in 10 mL of water to prepare a 0.075 M ATC solution, which was stored at −30° C. for later use; 0.237 g of BTC was dissolved in 10 mL of water to prepare a 0.075 M BTC solution, which was stored at −30° C. for later use.
(4) Formulation of AChE and BuChE solutions: 5,000 units of AChE were dissolved in 1 mL of 1% gel solution, and then diluted to 100 mL with water to prepare a AChE solution with a concentration of 5 units/mL, which was stored at −30° C. for later use; 5,000 units of BuChE were dissolved in 1 mL of 1% gel solution, and then diluted to 100 mL with water to prepare a BuChE solution with a concentration of 5 units/mL, which was stored at −30° C. for later use.
(5) Formulation of test substance solution: The test compound was dissolved in ethanol to obtain a solution with a concentration of 10^−3 M (ethanol would not affect the test results), and then diluted with water to prepare solutions with concentrations of […], 10^−5, 10^−6, 10^−7, 10^−8, 10^−9, and 10^−10 M, respectively.
Before the start of the experiment, all the solutions as used were warmed to room temperature, and the AChE and BuChE solutions were diluted 1-fold with water to prepare an enzyme solution with a concentration of 2.5 units/mL. The background UV absorbance was measured with a blank buffer (3 mL) as a subtraction value. Firstly, 100 μL of test compound solution, 100 μL of DTNB solution, and 100 μL of enzyme solution were added to 3 mL of buffer. After adding 20 μL of ATC or BTC solution to trigger the reaction, the time was recorded immediately and the test solution was mixted quickly and uniformly at the same time. After 2 minutes, the UV absorbance was measured at a wavelength of […]. The blank control group was measured with an equal volume of water instead of the test substance solution. All tests were performed three times in parallel. The UV absorption value of the blank control group was taken as 100%, the absorbance (OD value) of the test compound at each concentration was recorded, and GraphPad Prism™ (GraphPad Software, San Diego, CA, USA) software was used to analyze the results in a non-linear regression analysis model to calculate the corresponding IC50 values, as shown in Table 1.

hBuChE = hBuChE (Homo sapiens, UniProt P06276); assay: Cholinesterase inhibitory activity (DTNB/BTC), hBuChE; assay type: biochemical; conditions: mean ± SEM
PC-12 neural cell line = assay: Toxicity test in PC-12 nerve cell (MTT); assay type: cell-based; conditions: PC-12 cells; for SR(%) cell survival rate, 20 μM: 20 μM compound for 24 h; for SR(%) cell survival rate, 50 μM: 50 μM compound for 24 h
Experimental: Toxicity Test in PC-12 Nerve Cell:
Drugs and reagents: Test compounds, DMEM medium (01-050-1A) purchased from Biological Industries, FBS fetal bovine serum (04-001-1A) purchased from Biological Industries, MTT thiazolyl blue reagent (KGT525500) purchased from KeyGEN BioTECH.
as §1
About 3×10^3 PC-12 cells were evenly mixed in 0.1 mL of DMEM medium containing 10% FBS, and plated on a 96-well bottom plate, and incubated overnight at 37° C. in an environment containing 5% CO2. The 20 μM and 50 μM compounds diluted in 0.1 mL of DMEM medium were treated on the cells for 24 hours. Then MTT reagent was added to the well plate, and the plate was incubated at 37° C. for 2 to 4 hours. The color reaction was measured at 492 nm using a spectrophotometer (Thermo, multiskan FC).

[2] = eqBuChE, mean ± SEM, three parallel tests
[3] = read-out: IC50 (nM) ± SEM eqBuChE

T1 sequence (P81908 whole entry): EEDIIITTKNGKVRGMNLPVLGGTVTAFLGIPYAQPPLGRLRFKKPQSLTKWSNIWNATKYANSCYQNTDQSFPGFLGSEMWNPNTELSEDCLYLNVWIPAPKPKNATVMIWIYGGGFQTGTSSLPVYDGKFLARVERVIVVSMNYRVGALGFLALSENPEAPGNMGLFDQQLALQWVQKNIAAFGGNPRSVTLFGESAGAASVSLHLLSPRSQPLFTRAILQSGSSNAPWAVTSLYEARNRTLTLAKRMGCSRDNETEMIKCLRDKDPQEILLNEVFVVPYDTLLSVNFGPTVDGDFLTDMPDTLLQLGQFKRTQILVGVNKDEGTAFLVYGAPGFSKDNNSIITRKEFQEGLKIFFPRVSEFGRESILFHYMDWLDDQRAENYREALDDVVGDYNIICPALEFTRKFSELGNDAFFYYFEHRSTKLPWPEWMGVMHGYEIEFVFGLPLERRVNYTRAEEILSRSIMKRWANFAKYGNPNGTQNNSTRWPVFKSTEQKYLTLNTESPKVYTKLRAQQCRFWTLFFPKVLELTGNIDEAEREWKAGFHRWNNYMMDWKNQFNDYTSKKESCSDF

SMILES	IC50 [1, 2] [nM]	IC50 (hBuChE) [nM]	SR(%) cell survival rate, 20 μM (PC-12 neural cell line) [%]	SR(%) cell survival rate, 50 μM (PC-12 neural cell line) [%]	IC50 [1, 3] [nM]	inhibition at 10 µM ([1]; read-out: inhibition rate of the compound on the target at a concentration of 10 μM (eqBuChE)) [%]
CCN(CC)Cc1ccccc1CNC(=O)c1cccc(NC(=O)c2cccs2)c1 [Compound 1, N-(3-((2-((diethylamino)methyl)benzyl)carbamoyl)phenyl)thiophene-2-carboxamide]	0.13 ± 0.01	0.42 ± 0.07	97.36	84.34		
CN(C)Cc1ccccc1NC(=O)c1cccc(NC(=O)c2cccs2)c1 [Compound 2, N-(3-((2-((dimethylamino)methyl)phenyl)carbamoyl)phenyl)thiophene-2-carboxamide]	1910 ± 983		94.30	91.45		
CCN(CC)Cc1ccccc1NC(=O)c1cccc(NC(=O)c2cccs2)c1 [Compound 3, N-(3-((2-((diethylamino)methyl)phenyl)carbamoyl)phenyl)thiophene-2-carboxamide]	481 ± 110		95.23	89.64		
CCCN(CCC)Cc1ccccc1NC(=O)c1cccc(NC(=O)c2cccs2)c1 [Compound 4, N-(3-((2-((dipropylamino)methyl)phenyl)carbamoyl)phenyl)thiophene-2-carboxamide]			87.24	79.48	122 ± 285	
CCN(CC)Cc1ccccc1CNC(=O)c1cccc(NC(=O)c2ccc[nH]2)c1 [Compound 5, N-(3-((2-((diethylamino)methyl)benzyl)carbamoyl)phenyl)-pyrrole-2-carboxamide]		2.99 ± 0.67	97.53	92.47	0.87 ± 0.03	
CCN(CC)Cc1ccccc1CNC(=O)c1cccc(NC(=O)c2ccco2)c1 [Compound 6, N-(3-((2-((diethylamino)methyl)benzyl)carbamoyl)phenyl)furan-2-carboxamide]	0.79 ± 0.09	0.63 ± 0.13	95.37	81.46		
CCN(CC)Cc1ccccc1CNC(=O)c1cccc(NC(=O)c2ccccn2)c1 [Compound 7, N-(3-((2-((diethylamino)methyl)benzyl)carbamoyl)phenyl)-pyridineamide]		0.78 ± 0.63	92.36	75.46	0.34 ± 0.02	
CCN(CC)Cc1ccccc1CNC(=O)c1cccc(NC(=O)c2nccs2)c1 [Compound 8, N-(3-((2-((diethylamino)methyl)benzyl)carbamoyl)phenyl)-thiazole-2-carboxamide]		1.88 ± 0.52	93.57	89.42	0.75 ± 0.14	
CCN(CC)Cc1ccccc1CNC(=O)c1cccc(NC(=O)c2ncc[nH]2)c1 [Compound 9, N-(3-((2-((diethylamino)methyl)benzyl)carbamoyl)phenyl)-imidazole-2-carboxamide]		1.91 ± 0.24	80.36	70.74	0.52 ± 0.1	
CCN(CC)Cc1ccccc1CNC(=O)c1cccc(NC(=O)C2CCCCC2)c1 [Compound 10, 3-(cyclohexanecarboxamido)-N-(2-((diethylamino)methyl)benzyl)benzamide]			90.23	83.22	122 ± 15.4	
CCN(CC)Cc1ccccc1CNC(=O)c1cccc(NC(=O)c2ccccc2)c1 [Compound 11, 3-benzamido-N-(2-((diethylamino)methyl)benzyl)benzamide]		0.99 ± 0.18	96.30	83.4	0.48 ± 0.07	
CCN(CC)Cc1ccccc1CNC(=O)c1cccc(NC(=O)c2ccc(O)cc2)c1 [Compound 12, N-(2-((diethylamino)methyl)benzyl)-3-(4-hydroxybenzamido)benzamide]		2.45 ± 0.37	91.46	89.64	0.79 ± 0.19	
CCN(CC)Cc1ccccc1CNC(=O)c1cccc(NC(=O)c2ccc(C(=O)O)cc2)c1 [Compound 13, 4-((3-((2-((diethylamino)methyl)benzyl)carbamoyl)phenyl)carbamoyl)benzoic acid]		3.4 ± 0.31	91.46	75.25	0.76 ± 0.09	
CCN(CC)Cc1ccccc1CNC(=O)c1cccc(NC(=O)c2ccc(C=O)cc2)c1 [Compound 14, N-(2-((diethylamino)methyl)benzyl)-3-(4-formanilide)benzamide]		2.09 ± 0.99	86.34	81.34	0.89 ± 0.63	
CCN(CC)Cc1ccccc1CNC(=O)c1cccc(NC(=O)c2ccc(F)cc2)c1 [Compound 15, N-(2-((diethylamino)methyl)benzyl)-3-(4-fluorobenzamido)benzamide]	0.15 ± 0.06	1.44 ± 1.66	93.57	84.35		
CCN(CC)Cc1ccccc1CNC(=O)c1cccc(NC(=O)c2ccc(F)c(F)c2)c1 [Compound 16]		0.57 ± 0.1	95.72	89.53	0.3 ± 0.07	
CCN(CC)Cc1ccccc1CNC(=O)c1cccc(NC(=O)c2cccc(F)c2)c1 [Compound 17, N-(2-((diethylamino)methyl)benzyl)-3-(3-fluorobenzamido)benzamide]	4.55 ± 0.74	25.2 ± 19.1	98.40	89.75		
CCN(CC)Cc1ccccc1CNC(=O)c1cccc(NC(=O)c2ccccc2F)c1 [Compound 18, N-(3-((2-((diethylamino)methyl)benzyl)carbamoyl)phenyl)-2-fluorobenzamide]		17.4 ± 1.98	80.26	73.56	3.5 ± 1.1	
CCN(CC)Cc1ccccc1CNC(=O)c1cccc(NC(=O)c2ccc(Cl)cc2)c1 [Compound 19, 3-(4-chlorobenzamido)-N-(2-((diethylamino)methyl)benzyl)benzamide]		0.83 ± 0.39	90.43	79.24	0.34 ± 0.21	
CCN(CC)Cc1ccccc1CNC(=O)c1cccc(NC(=O)c2ccc(Br)cc2)c1 [Compound 20, 3-(4-bromobenzamido)-N-(2-((diethylamino)methyl)benzyl)benzamide]		1.91 ± 0.59	94.00	85.21	0.98 ± 0.62	
O=C(NCc1ccccc1)c1cccc(NC(=O)c2cccs2)c1 [Compound 36]			89.57	77.42		27.2

Reference: patent publication US12310944B2 (priority 2019, dated 2025)
